In ChEMBL document CHEMBL4825673, “Total and Semisyntheses of Polymyxin Analogues with 2-Thr or 10-Thr Modifications to Decipher the Structure-Activity Relationship and Improve the Antibacterial Activity” (J Med Chem, 2021):
In brackets after ≈: the same amount, converted by molar mass. Starred links: 1 amine or outer side, 2 acyl side, 3 side chain; linkers in the order of their positions; H or OH if unused. Positions of bridges follow the written chain, without caps; N, C: chain ends. Non-standard residues stand in square brackets, D forms with d. Residues, ends and D or L forms follow the SMILES beside them. *: point of attachment. Benzoyl(4-OPh) = O=C(c1ccc(Oc2ccccc2)cc1)*; NH(2-ClPh) = Clc1ccccc1N*; Dab = NCC[C@H](N)C(=O)O; CO = O=C([*:1])[*:2]

Test system: Pseudomonas aeruginosa
Assay: Antibacterial activity against Pseudomonas aeruginosa PAO1 assessed as inhibition of bacterial growth incubated for 24 hrs by broth microdilution method
Type: functional
Conditions: read-out: MIC100

SMILES	MIC [µg/mL]
CC(C)CCCCC(=O)N[C@@H](CCN)C(=O)N[C@H](C(=O)N[C@@H](CCN)C(=O)N[C@H]1CCNC(=O)[C@H]([C@@H](C)O)NC(=O)[C@H](CCN)NC(=O)[C@H](CCN)NC(=O)[C@H](CC(C)C)NC(=O)[C@@H](Cc2ccccc2)NC(=O)[C@H](CCN)NC1=O)[C@@H](C)OC(=O)[C@@H](N)[C@@H](C)O	2 (≈ 1.55 µM)
CC(C)CCCCC(=O)N[C@@H](CCN)C(=O)N[C@@H](CC(=O)O)C(=O)N[C@@H](CCN)C(=O)N[C@H]1CCNC(=O)[C@H]([C@@H](C)O)NC(=O)[C@H](CCN)NC(=O)[C@H](CCN)NC(=O)[C@H](CC(C)C)NC(=O)[C@@H](Cc2ccccc2)NC(=O)[C@H](CCN)NC1=O	64 (≈ 53.2 µM)
CC(C)CCCCC(=O)N[C@@H](CCN)C(=O)N[C@H](C(=O)N[C@@H](CCN)C(=O)N[C@H]1CCNC(=O)[C@H]([C@@H](C)O)NC(=O)[C@H](CCN)NC(=O)[C@H](CCN)NC(=O)[C@H](CC(C)C)NC(=O)[C@@H](Cc2ccccc2)NC(=O)[C@H](CCN)NC1=O)[C@@H](C)OC(=O)[C@@H](N)CC(N)=O	1 (≈ 0.767 µM)
CC(C)C[C@@H]1NC(=O)[C@@H](Cc2ccccc2)NC(=O)[C@H](CCN)NC(=O)[C@@H](NC(=O)[C@H](CCN)NC(=O)[C@@H](NC(=O)[C@H](CCN)NC(=O)CCCCCCCN(Cc2ccccn2)Cc2ccccn2)[C@@H](C)O)CCNC(=O)[C@H]([C@@H](C)O)NC(=O)[C@H](CCN)NC(=O)[C@H](CCN)NC1=O	32 (≈ 23.1 µM)
CC(C)CCCCC(=O)N[C@@H](CCN)C(=O)N[C@H](C(=O)N[C@@H](CCN)C(=O)N[C@H]1CCNC(=O)[C@H]([C@@H](C)OC(=O)[C@@H]2CCCN2)NC(=O)[C@H](CCN)NC(=O)[C@H](CCN)NC(=O)[C@H](CC(C)C)NC(=O)[C@@H](Cc2ccccc2)NC(=O)[C@H](CCN)NC1=O)[C@@H](C)OC(=O)[C@@H]1CCCN1	2 (≈ 1.45 µM)
CC[C@H](C)CCCCC(=O)N[C@@H](CCN)C(=O)N[C@H](C(=O)N[C@@H](CCN)C(=O)N[C@H]1CCNC(=O)[C@H]([C@@H](C)OC(=O)CN)NC(=O)[C@H](CCN)NC(=O)[C@H](CCN)NC(=O)[C@H](CC(C)C)NC(=O)[C@@H](Cc2ccccc2)NC(=O)[C@H](CCN)NC1=O)[C@@H](C)OC(=O)CN	2 (≈ 1.52 µM)
CC[C@H](C)CCCCC(=O)N[C@@H](CCN)C(=O)N[C@H](C(=O)N[C@@H](CCN)C(=O)N[C@H]1CCNC(=O)[C@H]([C@@H](C)O)NC(=O)[C@H](CCN)NC(=O)[C@H](CCN)NC(=O)[C@H](CC(C)C)NC(=O)[C@@H](Cc2ccccc2)NC(=O)[C@H](CCN)NC1=O)[C@@H](C)OC(=O)[C@@H](N)Cc1c[nH]cn1	2 (≈ 1.49 µM)
CCCCCCCC(=O)N[C@@H](CCN)C(=O)N[C@H](C(=O)N[C@@H](CCN)C(=O)N[C@H]1CCNC(=O)[C@H](CCSC)NC(=O)[C@H](CCN)NC(=O)[C@H](CCN)NC(=O)[C@H](CC(C)C)NC(=O)[C@@H](Cc2ccccc2)NC(=O)[C@H](CCN)NC1=O)[C@@H](C)O	4 (≈ 3.28 µM)
CC(C)CCCCC(=O)N[C@@H](CCN)C(=O)N[C@H](C(=O)N[C@@H](CCN)C(=O)N[C@H]1CCNC(=O)[C@H]([C@@H](C)O)NC(=O)[C@H](CCN)NC(=O)[C@H](CCN)NC(=O)[C@H](CC(C)C)NC(=O)[C@@H](Cc2ccccc2)NC(=O)[C@H](CCN)NC1=O)[C@H](C)OC(=O)[C@@H](N)CCC(=O)O	2 (≈ 1.52 µM)
CC(C)CCCCC(=O)N[C@@H](CCN)C(=O)N[C@H](C(=O)N[C@@H](CCN)C(=O)N[C@H]1CCNC(=O)[C@H]([C@@H](C)OC(=O)[C@@H](N)CC(=O)O)NC(=O)[C@H](CCN)NC(=O)[C@H](CCN)NC(=O)[C@H](CC(C)C)NC(=O)[C@@H](Cc2ccccc2)NC(=O)[C@H](CCN)NC1=O)[C@@H](C)OC(=O)[C@@H](N)CC(=O)O	4 (≈ 2.82 µM)
CC(C)C[C@@H]1NC(=O)[C@@H](Cc2ccccc2)NC(=O)[C@H](CCN)NC(=O)[C@@H](NC(=O)[C@H](CCN)NC(=O)[C@@H](NC(=O)[C@H](CCN)NC(=O)Nc2ccccc2Cl)[C@@H](C)O)CCNC(=O)[C@H]([C@@H](C)O)NC(=O)[C@H](CCN)NC(=O)[C@H](CCN)NC1=O ({NH(2-ClPh)-CO}-[Dab]T[Dab][Dab][Dab][dF]L[Dab][Dab]T; lactam 4-C)	4 (≈ 3.29 µM)
CC(N[C@@H](CCN)C(=O)N[C@H](C(=O)N[C@@H](CCN)C(=O)N[C@H]1CCNC(=O)[C@H]([C@@H](C)O)NC(=O)[C@H](CCN)NC(=O)[C@H](CCN)NC(=O)[C@H](CC(C)C)NC(=O)[C@@H](Cc2ccccc2)NC(=O)[C@H](CCN)NC1=O)[C@@H](C)O)=C1C(=O)CC(C)(C)CC1=O	32 (≈ 26.1 µM)
CC[C@H](C)CCCCC(=O)N[C@@H](CCN)C(=O)N[C@H](C(=O)N[C@@H](CCN)C(=O)N[C@H]1CCNC(=O)[C@H]([C@@H](C)OC(=O)[C@H](C)N)NC(=O)[C@H](CCN)NC(=O)[C@H](CCN)NC(=O)[C@H](CC(C)C)NC(=O)[C@@H](Cc2ccccc2)NC(=O)[C@H](CCN)NC1=O)[C@@H](C)OC(=O)[C@H](C)N	2 (≈ 1.49 µM)
CC[C@H](C)CCCCC(=O)N[C@@H](CCN)C(=O)N[C@H](C(=O)N[C@@H](CCN)C(=O)N[C@H]1CCNC(=O)[C@H]([C@@H](C)O)NC(=O)[C@H](CCN)NC(=O)[C@H](CCN)NC(=O)[C@H](CC(C)C)NC(=O)[C@@H](Cc2ccccc2)NC(=O)[C@H](CCN)NC1=O)[C@@H](C)OC(=O)[C@@H](N)CCSC	2 (≈ 1.5 µM)
CC[C@H](C)CCCCC(=O)N[C@@H](CCN)C(=O)N[C@H](C(=O)N[C@@H](CCN)C(=O)N[C@H]1CCNC(=O)[C@H]([C@@H](C)O)NC(=O)[C@H](CCN)NC(=O)[C@H](CCN)NC(=O)[C@H](CC(C)C)NC(=O)[C@@H](Cc2ccccc2)NC(=O)[C@H](CCN)NC1=O)[C@@H](C)OC(=O)[C@@H](N)CCCCN	2 (≈ 1.5 µM)
CC[C@H](C)CCCCC(=O)N[C@@H](CCN)C(=O)N[C@H](C(=O)N[C@@H](CCN)C(=O)N[C@H]1CCNC(=O)[C@H]([C@@H](C)O)NC(=O)[C@H](CCN)NC(=O)[C@H](CCN)NC(=O)[C@H](CC(C)C)NC(=O)[C@@H](Cc2ccccc2)NC(=O)[C@H](CCN)NC1=O)[C@@H](C)OC(=O)[C@@H](N)CCCNC(=N)N	2 (≈ 1.47 µM)
CCCCCCCC(=O)N[C@@H](CCN)C(=O)NCC(=O)N[C@@H](CCN)C(=O)N[C@H]1CCNC(=O)[C@H]([C@@H](C)O)NC(=O)[C@H](CCN)NC(=O)[C@H](CCN)NC(=O)[C@H](CC(C)C)NC(=O)[C@@H](Cc2ccccc2)NC(=O)[C@H](CCN)NC1=O	64 (≈ 55.9 µM)
CCCCCCCC(=O)N[C@@H](CCN)C(=O)N[C@@H](CO)C(=O)N[C@@H](CCN)C(=O)N[C@H]1CCNC(=O)[C@H]([C@@H](C)O)NC(=O)[C@H](CCN)NC(=O)[C@H](CCN)NC(=O)[C@H](CC(C)C)NC(=O)[C@@H](Cc2ccccc2)NC(=O)[C@H](CCN)NC1=O	2 (≈ 1.7 µM)
CC[C@H](C)CCCCC(=O)N[C@@H](CCN)C(=O)N[C@H](C(=O)N[C@@H](CCN)C(=O)N[C@H]1CCNC(=O)[C@H]([C@@H](C)O)NC(=O)[C@H](CCN)NC(=O)[C@H](CCN)NC(=O)[C@H](CC(C)C)NC(=O)[C@@H](Cc2ccccc2)NC(=O)[C@H](CCN)NC1=O)[C@@H](C)OC(=O)[C@@H](N)CO	1 (≈ 0.775 µM)
CC(C)C[C@@H]1NC(=O)[C@@H](Cc2ccccc2)NC(=O)[C@H](CCN)NC(=O)[C@@H](NC(=O)[C@H](CCN)NC(=O)[C@@H](NC(=O)[C@H](CCN)NC(=O)c2ccc(Oc3ccccc3)cc2)[C@@H](C)O)CCNC(=O)[C@H]([C@@H](C)O)NC(=O)[C@H](CCN)NC(=O)[C@H](CCN)NC1=O ({Benzoyl(4-OPh)}-[Dab]T[Dab][Dab][Dab][dF]L[Dab][Dab]T; lactam 4-C)	4 (≈ 3.18 µM)
